Like-named read-outs stand apart in the source and are kept apart here.
What was measured:
[1] = Solubility in 0.1 M phosphate buffer at pH 7; assay type: physicochemical; settings: 0.1 M phosphate buffer at pH 7, 10 mg/mL final peptide concentration, shaking 2 hours at room temperature, peptides as TFA-salts; measured sample pH 6.5-7.0
[2] = biological target: T1, hGLP1R (Homo sapiens, UniProt P43220); assay: hGLP1R CreLuc assay in 0.5% and 100% plasma (HEK-293 CRE-luciferase reporter cells); assay type: cell-based; settings: HEK-293 reporter cells
T1 construct: expressed in transfected cells; host or cells: HEK-293 CRE-luciferase reporter cells

[3] = biological target: T2, hGIPR (Homo sapiens, UniProt P48546); assay: hGIPR CreLuc assay in 0.5% and 100% plasma (CHO CRE-luciferase reporter cells); assay type: cell-based
T2 construct: expressed in transfected cells; host or cells: CHO CRE-luciferase reporter cells
T2 sequence (P48546 22-466): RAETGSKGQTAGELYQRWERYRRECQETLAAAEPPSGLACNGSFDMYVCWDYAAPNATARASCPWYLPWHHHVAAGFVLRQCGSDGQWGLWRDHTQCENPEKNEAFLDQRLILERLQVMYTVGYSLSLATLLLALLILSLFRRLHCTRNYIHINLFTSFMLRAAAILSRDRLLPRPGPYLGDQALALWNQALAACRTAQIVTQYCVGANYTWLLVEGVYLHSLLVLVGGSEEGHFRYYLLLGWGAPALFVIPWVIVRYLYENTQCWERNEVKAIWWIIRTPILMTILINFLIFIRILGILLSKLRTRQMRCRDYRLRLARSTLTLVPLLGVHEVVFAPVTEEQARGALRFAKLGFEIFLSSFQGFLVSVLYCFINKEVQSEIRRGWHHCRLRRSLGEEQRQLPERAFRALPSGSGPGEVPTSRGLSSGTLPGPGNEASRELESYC

[4] = 0.5% human plasma, read-out: hGLP1R 0.5% hP
[5] = 0.5% human plasma, read-out: hGIPR 0.5% hP
[6] = 100% human plasma, read-out: hGIPR 100% hP
[7] = 100% human plasma, read-out: hGLP1R 100% hP

T1 sequence (P43220 24-463): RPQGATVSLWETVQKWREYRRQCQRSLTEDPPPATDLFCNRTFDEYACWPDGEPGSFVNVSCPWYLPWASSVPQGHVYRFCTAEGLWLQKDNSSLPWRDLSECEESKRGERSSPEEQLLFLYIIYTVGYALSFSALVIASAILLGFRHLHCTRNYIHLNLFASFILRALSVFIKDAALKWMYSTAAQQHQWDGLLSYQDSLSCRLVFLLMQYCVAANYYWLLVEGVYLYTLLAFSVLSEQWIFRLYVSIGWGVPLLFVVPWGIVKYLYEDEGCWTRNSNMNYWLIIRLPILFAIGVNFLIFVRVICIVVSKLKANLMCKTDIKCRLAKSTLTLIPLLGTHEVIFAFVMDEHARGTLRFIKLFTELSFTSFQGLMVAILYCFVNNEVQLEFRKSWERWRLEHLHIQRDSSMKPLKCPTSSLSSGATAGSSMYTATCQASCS

Compound	solubility at 2 h [1]	EC50 [2, 4]	EC50 [3, 5]	EC50 [3, 6]	EC50 [2, 7]
CC[C@H](C)[C@H](NC(=O)[C@H](CC(C)C)NC(=O)[C@H](Cc1c[nH]cn1)NC(=O)[C@H](CCCNC(=N)N)NC(=O)[C@@H](NC(=O)[C@H](Cc1ccccc1)NC(=O)[C@H](CCC(=O)O)NC(=O)C(C)(C)NC(=O)[C@H](CCC(N)=O)NC(=O)[C@H](C)NC(=O)[C@H](CCC(N)=O)NC(=O)[C@H](CCCCN)NC(=O)[C@H](CC(=O)O)NC(=O)[C@H](CC(C)C)NC(=O)C(C)(C)NC(=O)[C@@H](NC(=O)[C@H](CO)NC(=O)[C@H](Cc1ccc(O)cc1)NC(=O)[C@H](CC(=O)O)NC(=O)[C@H](CO)NC(=O)[C@@H](NC(=O)[C@H](Cc1ccccc1)NC(=O)[C@@H](NC(=O)CNC(=O)[C@H](CCC(=O)O)NC(=O)C(C)(C)NC(=O)[C@@H](N)Cc1ccc(O)cc1)[C@@H](C)O)[C@@H](C)O)[C@@H](C)CC)C(C)C)C(=O)N[C@@H](CC(N)=O)C(=O)N[C@@H](CCCCNC(=O)[C@@H](N)CCCCNC(=O)CC[C@H](NC(=O)CC[C@H](NC(=O)CC[C@H](NC(=O)CC[C@H](NC(=O)CC[C@H](NC(=O)CCCCCCCCCCCCCCCCC(=O)O)C(=O)O)C(=O)O)C(=O)O)C(=O)O)C(=O)O)C(=O)NC(C)(C)C(=O)N[C@H](C(=O)N[C@@H](CCCNC(=N)N)C(=O)N[C@@H](CCC(N)=O)C(=O)N[C@@H](CCCNC(=N)N)C(=O)N[C@@H](Cc1ccc(O)cc1)C(N)=O)[C@@H](C)O [Compound 113, Y-Aib-E-G-T-F-T-S-D-Y-S-I-Aib-L-D-K-Q-A-Q-Aib-E-F-V-R-H-L-I-N-K(1,3)-Aib-T-R-Q-R-Y-NH2.C18DA-gGlu-gGlu-gGlu-gGlu-gGlu-eLys(1,2)]	8700 µg/mL	0.1 nM	0.2 nM	5.5 nM	–
CC[C@H](C)[C@H](NC(=O)[C@H](CC(C)C)NC(=O)[C@H](Cc1c[nH]cn1)NC(=O)[C@H](CCCNC(=N)N)NC(=O)[C@@H](NC(=O)[C@H](Cc1ccccc1)NC(=O)[C@H](C)NC(=O)C(C)(C)NC(=O)[C@H](CCC(N)=O)NC(=O)[C@H](C)NC(=O)[C@H](CCC(N)=O)NC(=O)[C@H](CCCCN)NC(=O)[C@H](CCC(=O)O)NC(=O)[C@H](CC(C)C)NC(=O)C(C)(C)NC(=O)[C@@H](NC(=O)[C@H](CO)NC(=O)[C@H](Cc1ccc(O)cc1)NC(=O)[C@H](CC(=O)O)NC(=O)[C@H](CO)NC(=O)[C@@H](NC(=O)[C@H](Cc1ccccc1)NC(=O)[C@@H](NC(=O)CNC(=O)[C@H](CCC(=O)O)NC(=O)C(C)(C)NC(=O)[C@@H](N)Cc1ccc(O)cc1)[C@@H](C)O)[C@@H](C)O)[C@@H](C)CC)C(C)C)C(=O)N[C@@H](CC(N)=O)C(=O)N[C@@H](CCCCNC(=O)[C@@H](N)CCCCNC(=O)CC[C@H](NC(=O)CC[C@H](NC(=O)CC[C@H](NC(=O)CC[C@H](NC(=O)CC[C@H](NC(=O)CC[C@H](NC(=O)CCCCCCCCCCCCCCCCC(=O)O)C(=O)O)C(=O)O)C(=O)O)C(=O)O)C(=O)O)C(=O)O)C(=O)NC(C)(C)C(=O)N[C@H](C(=O)N[C@@H](CCCNC(=N)N)C(=O)N[C@@H](CCC(N)=O)C(=O)N[C@@H](CCCNC(=N)N)C(=O)N(C)[C@@H](Cc1ccc(O)cc1)C(N)=O)[C@@H](C)O [Compound 116, Y-Aib-E-G-T-F-T-S-D-Y-S-I-Aib-L-E-K-Q-A-Q-Aib-A-F-V-R-H-L-I-N-K(1,3)-Aib-T-R-Q-R-NMeY-NH2.C18DA-gGlu-gGlu-gGlu-gGlu-gGlu-gGlu-eLys(1,2)]	4200 µg/mL	2 nM	0.3 nM	3.4 nM	–
CC[C@H](C)[C@H](NC(=O)[C@H](CC(C)C)NC(=O)[C@H](Cc1c[nH]cn1)NC(=O)[C@H](CCCNC(=N)N)NC(=O)[C@@H](NC(=O)[C@H](Cc1ccccc1)NC(=O)[C@H](C)NC(=O)C(C)(C)NC(=O)[C@H](CCC(N)=O)NC(=O)[C@H](C)NC(=O)[C@H](CCC(N)=O)NC(=O)[C@H](CCCCN)NC(=O)[C@H](CCC(=O)O)NC(=O)[C@H](CC(C)C)NC(=O)C(C)(C)NC(=O)[C@@H](NC(=O)[C@H](CO)NC(=O)[C@H](Cc1ccc(O)cc1)NC(=O)[C@H](CC(=O)O)NC(=O)[C@H](CO)NC(=O)[C@@H](NC(=O)[C@H](Cc1ccccc1)NC(=O)[C@@H](NC(=O)CNC(=O)[C@H](CCC(=O)O)NC(=O)C(C)(C)NC(=O)[C@@H](N)Cc1ccc(O)cc1)[C@@H](C)O)[C@@H](C)O)[C@@H](C)CC)C(C)C)C(=O)N[C@@H](CC(N)=O)C(=O)N[C@@H](CCCCNC(=O)[C@@H](N)CCCCNC(=O)CC[C@H](NC(=O)CC[C@H](NC(=O)CC[C@H](NC(=O)CC[C@H](NC(=O)CC[C@H](NC(=O)CC[C@H](NC(=O)CCCCCCCCCCCCCCCCC(=O)O)C(=O)O)C(=O)O)C(=O)O)C(=O)O)C(=O)O)C(=O)O)C(=O)N[C@@H](CC(C)C)C(=O)N[C@H](C(=O)N[C@@H](CCCNC(=N)N)C(=O)N[C@@H](CCC(N)=O)C(=O)N[C@@H](CCCNC(=N)N)C(=O)N[C@@H](Cc1ccc(O)cc1)C(N)=O)[C@@H](C)O [Compound 127, Y-Aib-E-G-T-F-T-S-D-Y-S-I-Aib-L-E-K-Q-A-Q-Aib-A-F-V-R-H-L-I-N-K(1,3)-L-T-R-Q-R-Y-NH2.C18DA-gGlu-gGlu-gGlu-gGlu-gGlu-gGlu-eLys(1,2)]	4500 µg/mL	–	0.4 nM	–	4 nM
CC[C@H](C)[C@H](NC(=O)[C@H](CC(C)C)NC(=O)[C@H](C)NC(=O)[C@H](CCCNC(=N)N)NC(=O)[C@@H](NC(=O)[C@H](Cc1ccccc1)NC(=O)[C@H](C)NC(=O)C(C)(C)NC(=O)[C@H](CCC(N)=O)NC(=O)[C@H](C)NC(=O)[C@H](CCC(N)=O)NC(=O)[C@H](CCCCN)NC(=O)[C@H](CCC(=O)O)NC(=O)[C@H](CC(C)C)NC(=O)C(C)(C)NC(=O)[C@@H](NC(=O)[C@H](CO)NC(=O)[C@H](Cc1ccc(O)cc1)NC(=O)[C@H](CC(=O)O)NC(=O)[C@H](CO)NC(=O)[C@@H](NC(=O)[C@H](Cc1ccccc1)NC(=O)[C@@H](NC(=O)CNC(=O)[C@H](CCC(=O)O)NC(=O)C(C)(C)NC(=O)[C@@H](N)Cc1ccc(O)cc1)[C@@H](C)O)[C@@H](C)O)[C@@H](C)CC)C(C)C)C(=O)N[C@@H](CC(N)=O)C(=O)N[C@@H](CCCCNC(=O)[C@@H](N)CCCCNC(=O)CC[C@H](NC(=O)CC[C@H](NC(=O)CC[C@H](NC(=O)CC[C@H](NC(=O)CC[C@H](NC(=O)CC[C@H](NC(=O)CCCCCCCCCCCCCCCCC(=O)O)C(=O)O)C(=O)O)C(=O)O)C(=O)O)C(=O)O)C(=O)O)C(=O)NC(C)(C)C(=O)N[C@H](C(=O)N[C@@H](CCCNC(=N)N)C(=O)N[C@@H](CCC(N)=O)C(=O)N[C@@H](CCCNC(=N)N)C(=O)N[C@@H](Cc1ccc(O)cc1)C(N)=O)[C@@H](C)O [Compound 128, Y-Aib-E-G-T-F-T-S-D-Y-S-I-Aib-L-E-K-Q-A-Q-Aib-A-F-V-R-A-L-I-N-K(1,3)-Aib-T-R-Q-R-Y-NH2.C18DA-gGlu-gGlu-gGlu-gGlu-gGlu-gGlu-eLys(1,2)]	4100 µg/mL	0.7 nM	0.2 nM	–	4 nM

— patent US20250382344A1, “Soluble GLP1/GIP/NPY2 Receptor Triple Agonists” (Boehringer Ingelheim International GmH, priority 2024, published 2025)
